Assay results: US20130274233A1, “MODULATORS OF HEDGEHOG SIGNALING PATHWAY” (priority 2012, published 2013)
pEC50, pIC50: −log10 of the molar value.

Experiments:
Wnt signaling activity = assay: Wnt Top-flash reporter assay; type: cell-based; details: with or without Wnt3a
Method: (§1) Hh activity assays were performed using ShhLightll cells, Smo/Lightll cells, SmoM2/Lightll cells, and suFU−/− mouse embryonic fibroblasts. In the suFU−/− cells, Hh activity was measured after co-transfection with Gli driven firefly luciferase and TK-renilla luciferase reporters^41. Wnt activity was measured in 293 cells co-transfected with Top-flash and TK-renilla luciferase reporters^42. Cells were cultured and treated in 96 well assay plates (Corning) and incubated with Duo-Glo luciferase substrates (Promega) to measure firefly and renilla luciferase activity sequentially using a Top Count NX Microplate Scintillation and Luminescence Counter (Perkin Elmer). The renilla luciferase signal was used to normalize the firefly reporter activity.
(§2) ShhLightII cells and SmoM2/LightII cells were cultured and treated in 96 well assay plates (Corning) and incubated with Duo-Glo luciferase substrates (Promega) to sequentially measure firefly and renilla luciferase activity. Smo, or GFP, expression plasmids were co-transfected into 3T3 cells together with a Gli-responsive firefly reporter and a TK-renilla luciferase reporter contruct to monitor effects of Smo overexpression. Co-transfection of the two reporter constructs was conducted in assays measuring Hh pathway activity in suFU−/− cells. Wnt activity was measured following co-transfection of a Top-flash and renilla luciferase reporter. In both Hh and Wnt activity assays, renilla luciferase reporter activity, or mass of protein, was used to normalize expression values. Luciferase signal was read by TopCount NX Microplate Scintillation and Luminescence Counter (Perkin Elmer). Quantitative PCR probes for Ptch1, Gli1, and β-actin were purchased from Applied Biosystems. Reactions and measurements were performed using on an Applied Biosystems 7900HT at Harvard FAS Center of System Biology. β-actin was used to normalize Ptch1 and Gil1 values.

Hh pathway activity [1] = assay: Priming and withdrawal of compound followed by Shh stimulation, Gli-luciferase reporter (hypersensitivity); type: cell-based; details: for hypersensitivity to Hh pathway stimulation after priming with and removal of compound, Gli-luciferase: priming 24 hours, washout, then Shh (or SAG) stimulation
Method: as §1
Following the removal of drug containing medium, and extensive washing, cells were stimulated with either Hh ligand, or the direct-binding Smo agonist SAG^17,18.
as §2

Hh pathway activity [2] = assay: Gli-luciferase reporter assay, Shh-induced Hh pathway activity (ShhLightII cells); type: cell-based
From the text: NIH/3T3 cells were maintained in DMEM containing 10% (v/v) calf serum, penicillin, streptomycin, and L-glutamine. HEK293, L, cos 7, and suFU−/− mouse embryonic fibroblast cells were maintained in DMEM containing 10% (v/v) fetal bovine serum, penicillin, streptomycin, and L-glutamine. Smo::EGFP, SmoM2::GFP, and Ivs::tagRFPT were cloned into pBabe to generate retroviral particles for infection. Smo::EGFP/Ivs::tagRFPT and SmoM2::GFP/Ivs::tagRFPT stable cell lines were generated through viral infection of NIH/3T3^12. A ShhLightII Gli reporter cell line was obtained from the American Type Culture Collection (ATCC) and used in luciferase reporter assays to measure Hh pathway activity. The cell line contains a stably integrated Gli-responsive Firefly luciferase reporter and a constitutive Renilla luciferase expression construct^33. Subclones expressing Smo or SmoM2 in ShhLightII cells were used for chemical epistasis analyses.
as §1, §2

Smo = assay: Bodipy-cyclopamine competition assay in Cos 7 cells expressing Smo; type: binding; details: for competition of Bodipy-Cyc binding to Smo: cells over-expressing Smo, 5 nM Bodipy-cyclopamine
Method: Cos 7 cells were transfected with a plasmid co-expressing Smo and a nuclear localized form of tagRFPT (pCIT-Smo). An empty parental construct (pCIT), and a construct that co-expresses SmoM2, were used as controls to assess specificity and background noise. Three days after transfection, cells were incubated with 5 nM Bodipy-cyclopamine, with or without other compounds for 1 hour at 37 °C. Cells were washed, fixed and stained with Hoechst. Images were collected by an Opera High Content Screen System. Bodipy fluorescence was quantified specifically for transfected cells (determined by red tagRFPT+ nucleus) using a program developed by the authors with Acapella 2.0 software. All of the images were scanned with identical microscopic settings and analyzed with the same input parameters.
Cos 7 cells were transfected with a plasmid that co-expresses Smo and a nuclear localized tagRFPT marker (pCIT-Smo). The empty parental construct (pCIT) and a construct that co-express SmoM2 were used as controls to assess specificity and background signal. Three days after transfection, cells were incubated with 5 nM Bodipy-cyclopamine, with or without additional compounds, for 1 hour at 37° C. Cells were then fixed and stained with Hoechst. Images were collected with the Opera High Content Screen System. Fluorescence values were assessed in transfected cells (red nuclei) with a program developed by the authors using Acapella 2.0 software. All of images were scanned with identical microscopic setting and analyzed with the same input parameters.

[3] = test system: cerebellar granule neuron precursors (CGNPs) from P7 Ptch1+/− mice; assay: CGNP proliferation assay (pH3 positive cells); type: cell-based
Method: CGNP primary cells were isolated from P7 Ptch1+/− mice as previously reported^43 and immediately seeded in poly-D-lysine coated imaging plates (Greiner Bio-one). Compounds were applied 2 hours post seeding, for either 36 (FIG. 5a-b) or 72 hours (FIG. 5d-e). After completion of each experimental regimen, cells were fixed with 4% paraformaldehyde (Electron Microscopy Sciences), and stained with anti-pH3 antibody (Upstate; 1:100) followed by a secondary antibody (Invitrogen) and Hoechst (Invitrogen). Images were then collected using a confocal microscope. Cell proliferation, as marked by a pH3 signal, was quantified with an in-house program developed by the authors using Acapella 2.0 software. Identical microscopic settings were used in each analysis and identical input parameters were implemented for each experiment.
CGNP primary cells were isolated from P7 Ptch1+/− mice as previously reported^44. Cells were seeded in poly-D-lysine coated imaging plates (Greiner Bio-one), treatments were applied 2 hours thereafter and last for 36 hours. Cells then were fixed with 4% paraformaldehyde (Electron Microscopy Sciences), and stained with anti-pH3 antibody (Upstate; 1:100) followed by a secondary antibody (Invitrogen) and Hoechst (Invitrogen). Images were collected and cell proliferation quantified with a program developed by the authors utilizing Acapella 2.0 software. All of the images in each experiment were collected with identical microscopic settings and analyzed with identical input parameters.

Row | hypersensitivity to Hh pathway stimulation after priming with and removal of compound, Gli-luciferase (Hh pathway activity [1]) | pIC50 (Hh pathway activity [2]; Mus musculus, Shh Light II, 3T3/Shh-LightII cells, stimulus Shh, read-out: IC50, inhibition of Shh-induced expression of Gli-luciferase reporter) | pIC50 (Smo; Cos7/Smo expression, stimulus none, read-out: IC50, competition of BODIFY-cyclopamine-Smo binding) | pEC50 (Hh pathway activity [1]; cells treated 24 hours, compound withdrawal prior to Shh addition, read-out: EC50 of induced response to priming) | Compound | effect on Wnt pathway reporter activity (Wnt signaling activity) | competition of Bodipy-Cyc binding to Smo (Smo) | Shh driven hyperactivation after removal of compound, CGNP proliferation assay ([3]; CGNPs, after removal of compound) | pIC50 ([3]; Mus musculus, Neuron, pH 3, Ptch ± CGNP, stimulus Shh, read-out: IC50, Shh induced cell proliferation marked by pH 3) | effect on Shh-induced pH3 marked proliferation of CGNPs ([3]; Ptch1+/− CGNPs, Shh) | effect of co-stimulation on Shh-induced transcriptional response (Hh pathway activity [2]; 10 μM FA together with Shh) | effect on GDC0449 inhibition of Shh-stimulated CGNP proliferation ([3]; FA 10 μM co-administered with GDC0449) | Shh-driven CGNP proliferation ([3]; FA 10 μM with Shh) | number of proliferative pH3 positive CGNPs ([3]; FA 120 μM)
1 | no Shh driven hyperactivation | 5.70 | 7.00 | – | CCN(CC)c1ccc(/C=N/NC(=O)c2ccc(O)cc2)cc1 [DY131] | absence of an inhibitory activity | effective competitor | no Shh driven hyperactivation | > 6.20 | dramatically decreased | – | – | – | –
2 | higher induction of pathway activity | – | – | ~5.40 | CC1(C)O[C@@H]2C[C@H]3[C@@H]4C[C@H](F)C5=CC(=O)C=C[C@]5(C)[C@@]4(F)[C@@H](O)C[C@]3(C)[C@]2(C(=O)CO)O1 [FA, fluocinolone acetonide] | no change was detected | dose-dependent competition | – | – | – | dose-dependent enhancement | impaired | markedly enhanced | elevated
